Reference: patent US12319655B2, “RAF kinase inhibitors and methods of use thereof” (Deciphera Pharmaceuticals, LLC, priority 2021, dated 2025)

Columns and labels:
[1] = biological target: A-Raf kinase (SEQ. ID No: 1) (Homo sapiens (Human), UniProt P10398, Y301D/Y302D); experiment: Biochemical Assay for A-Raf (1); conditions: Table J, assay version (1); read-out: ARAF (1) IC50
Outline: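 IC50 values were derived by four-parameter sigmoidal fitting of percent inhibition, calculated from reaction rates over the 4–5 h window. Absorbance at 340 nm was tracked for 6 h at 30 °C via coupled PK/LDH NADH depletion. Conditions: 1 mM ATP, 30.1 nM MEK substrate, 5.55 nM A-Raf (Y301D/Y302D), Tris pH 7.5, 1% DMSO.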

[2] = biological target: B-Raf kinase (SEQ. ID NO: 2) (Homo sapiens (Human), UniProt P15056); experiment: Biochemical Assay for B-Raf (1); conditions: Table J, assay version (1); read-out: BRAF (1) IC50
B-Raf kinase (SEQ. ID NO: 2), sequence (P15056 416-766): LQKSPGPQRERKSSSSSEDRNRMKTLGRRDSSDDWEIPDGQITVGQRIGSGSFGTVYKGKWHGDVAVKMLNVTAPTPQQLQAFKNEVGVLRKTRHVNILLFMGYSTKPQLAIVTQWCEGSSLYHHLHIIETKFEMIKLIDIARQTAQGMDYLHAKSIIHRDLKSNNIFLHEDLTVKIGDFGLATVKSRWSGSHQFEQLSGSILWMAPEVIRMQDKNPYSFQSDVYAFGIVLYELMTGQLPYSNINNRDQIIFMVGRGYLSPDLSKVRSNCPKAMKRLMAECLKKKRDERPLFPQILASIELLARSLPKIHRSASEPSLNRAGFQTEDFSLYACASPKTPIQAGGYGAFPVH
Outline: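 IC50 derived by four-parameter sigmoidal fit of percent inhibition, normalised to uninhibited and reference-inhibitor controls, using reaction rates over 4–5 h. Coupled spectrophotometric readout (NADH loss at 340 nm, 6 h, 30° C.); 1 mM ATP, 30.1 nM MEK, 0.13 nM B-Raf, pH 7.5 Tris buffer, 1% DMSO.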

[3] = biological target: C-Raf kinase (SEQ. ID NO: 3) (Homo sapiens (Human), UniProt P04049, Y340D/Y341D); experiment: Biochemical Assay for C-Raf (1); conditions: Table J, assay version (1); read-out: CRAF (1) IC50
C-Raf kinase (SEQ. ID NO: 3), sequence (P04049 307-648 Y340D/Y341D): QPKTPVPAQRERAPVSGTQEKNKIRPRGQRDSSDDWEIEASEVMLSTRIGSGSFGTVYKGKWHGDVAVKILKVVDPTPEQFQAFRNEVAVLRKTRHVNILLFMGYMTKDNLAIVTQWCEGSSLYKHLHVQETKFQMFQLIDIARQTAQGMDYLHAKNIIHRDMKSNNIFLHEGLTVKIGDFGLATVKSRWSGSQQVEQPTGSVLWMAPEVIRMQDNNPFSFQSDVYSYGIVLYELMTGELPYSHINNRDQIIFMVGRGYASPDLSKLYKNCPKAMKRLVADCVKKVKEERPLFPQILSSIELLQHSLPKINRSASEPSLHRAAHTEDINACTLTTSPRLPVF
Outline: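 IC50 values come from a four-parameter fit of percent inhibition, using the reaction rate over 4–5 h of a 6 h continuous 340 nm read at 30 °C. The enzyme mix was C-Raf 0.43 nM, MEK substrate 30.1 nM and ATP 1 mM, in a PK/LDH NADH-coupled format in Tris pH 7.5 with 1% DMSO.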

[4] = system: Miapaca-2 cells; experiment: MiaPaca-2 Cell Proliferation Assay (1); type: cell-based; conditions: Homo sapiens, MIA PaCa-2, single agent, read-out: MiaPaca2 (1) IC50
Procedure: MiaPaca-2 Cell Proliferation Assay (1)
Miapaca-2 cells (catalog #CRL-1420) are obtained from the American Type Culture Collect (ATTC, Manassas, VA). Briefly, cells were grown in DMEM supplemented with 10% characterized fetal bovine serum (Invitrogen, Carlsbad, CA), 2.5% New Zealand sourced horse serum and 1% Penicillin/Streptomycin/L-Glutamine at 37° C., 5% CO2, and 95% humidity. Cells are expanded until reaching 70-95% confluency at which point they are sub-cultured or harvested for assay use. A serial dilution of test compound is dispensed into a 96-well black clear bottom plate in triplicate. Three thousand cells are added per well in 200 μL complete growth medium in the 96-well plate. Plates are incubated for 67-72 h at 37° C., 5% CO2, and 95% humidity. At the end of the incubation, 40 μL of a 440 μM solution of resazurin (Sigma, St. Louis, MO) in PBS is added to each well of the plate and plates are incubated for an additional 5-6 h at 37° C., 5% CO2, and 95% humidity. Plates are read on a Synergy2 or equivalent reader (Biotek, Winooski VT) using an excitation of 540 nm and an emission of 600 nm. Data is analyzed using Prism software (GraphPad, San Diego, CA) to calculate IC50 values.

A-Raf kinase (SEQ. ID No: 1), sequence (P10398 other isoform, or with tags, fused parts or gaps Y301D (already in the parent)/Y302D (already in the parent)): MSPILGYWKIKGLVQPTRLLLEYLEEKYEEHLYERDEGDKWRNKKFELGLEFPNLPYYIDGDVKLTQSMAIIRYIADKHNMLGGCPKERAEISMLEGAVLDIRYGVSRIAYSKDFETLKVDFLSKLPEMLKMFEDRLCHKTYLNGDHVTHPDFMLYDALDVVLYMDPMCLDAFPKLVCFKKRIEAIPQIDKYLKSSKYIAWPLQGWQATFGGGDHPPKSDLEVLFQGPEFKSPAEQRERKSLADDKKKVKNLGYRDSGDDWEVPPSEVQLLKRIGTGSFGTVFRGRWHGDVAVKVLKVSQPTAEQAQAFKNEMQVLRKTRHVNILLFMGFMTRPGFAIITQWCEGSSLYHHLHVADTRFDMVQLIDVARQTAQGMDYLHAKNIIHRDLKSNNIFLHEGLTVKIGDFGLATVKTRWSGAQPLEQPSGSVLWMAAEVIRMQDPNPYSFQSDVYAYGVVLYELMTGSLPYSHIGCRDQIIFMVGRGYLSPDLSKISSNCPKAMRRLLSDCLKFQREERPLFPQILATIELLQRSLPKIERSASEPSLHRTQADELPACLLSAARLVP

Row | IC50 [1] | IC50 [2] | IC50 [3] | IC50 [4] | Structure (SMILES)
1 | 1000 to 10000 nM | ≤ 100 nM | ≤ 100 nM | 1000 to 10000 nM | CNC(=O)c1cc(-c2cc(-c3cc(NC(=O)c4cccc(C(C)(C)C#N)c4)ccc3C)ccn2)ccn1 [Example 127]
2 | 1000 to 10000 nM | ≤ 100 nM | ≤ 100 nM | 1000 to 10000 nM | Cc1ncc(NC(=O)c2ccnc(C(C)(C)C#N)c2)cc1-c1cccc(-c2ncnc3[nH]ncc23)c1 [Example 129]
3 | 1000 to 10000 nM | ≤ 100 nM | ≤ 100 nM | 1000 to 10000 nM | Cc1ncc(NC(=O)c2ccnc(C3CC3)c2)cc1-c1cccc(-c2ncnc3[nH]ncc23)c1 [Example 131]
4 | 1000 to 10000 nM | 100 to 500 nM | ≤ 100 nM | 1000 to 10000 nM | CC(=O)Nc1nccc(-c2cccc(-c3cc(NC(=O)c4ccnc(C(F)(F)F)c4)ccc3C)c2)c1C#N [Example 132]
5 | 1000 to 10000 nM | ≤ 100 nM | ≤ 100 nM | 1000 to 10000 nM | Cc1ccc(NC(=O)c2ccnc(C(C)(C)C#N)c2)cc1-c1cccc(-c2ccnc3[nH]ncc23)c1 [Example 134]
6 | 1000 to 10000 nM | ≤ 100 nM | ≤ 100 nM | 1000 to 10000 nM | CNC(=O)c1cc(-c2cncc(-c3cc(NC(=O)c4cc(C(F)(F)F)ccn4)ccc3C)n2)ccn1 [Example 135]
7 | 1000 to 10000 nM | ≤ 100 nM | ≤ 100 nM | 1000 to 10000 nM | CNC(=O)c1cc(-c2cncc(-c3cc(NC(=O)c4cccc(C(C)(C)C#N)c4)ccc3C)n2)ccn1 [Example 136]
8 | 1000 to 10000 nM | ≤ 100 nM | ≤ 100 nM | 1000 to 10000 nM | CNC(=O)c1cc(-c2cncc(-c3cc(NC(=O)c4ccnc(C5(C#N)CC5)c4)ccc3C)n2)ccn1 [Example 138]
9 | 1000 to 10000 nM | ≤ 100 nM | ≤ 100 nM | 1000 to 10000 nM | CNC(=O)c1cc(-c2cncc(-c3cc(NC(=O)c4ccnc(C5CC5)c4)ccc3C)n2)ccn1 [Example 139]
10 | 500 to 1000 nM | ≤ 100 nM | ≤ 100 nM | 500 to 1000 nM | CC(=O)Nc1cc(-c2cncc(-c3cc(NC(=O)c4ccnc(C(C)(C)C#N)c4)ccc3C)n2)ccn1 [Example 140]
11 | 1000 to 10000 nM | 100 to 500 nM | ≤ 100 nM | 1000 to 10000 nM | Cc1ccc(NC(=O)c2ccnc(C(C)(C)C#N)c2)cc1-c1cncc(-c2ccnc(N)c2)n1 [Example 141]
12 | 1000 to 10000 nM | ≤ 100 nM | ≤ 100 nM | 1000 to 10000 nM | COCC(=O)Nc1cc(-c2cncc(-c3cc(NC(=O)c4ccnc(C(C)(C)C#N)c4)ccc3C)n2)ccn1 [Example 142]
13 | 1000 to 10000 nM | 100 to 500 nM | ≤ 100 nM | 1000 to 10000 nM | COCCNc1cc(-c2cncc(-c3cc(NC(=O)c4ccnc(C(C)(C)C#N)c4)ccc3C)n2)ccn1 [Example 143]
14 | 500 to 1000 nM | ≤ 100 nM | ≤ 100 nM | 1000 to 10000 nM | CC(=O)Nc1cc(-c2cncc(-c3cc(NC(=O)c4ccnc(C5CC5)c4)ccc3C)n2)ccn1 [Example 145]
15 | 500 to 1000 nM | ≤ 100 nM | ≤ 100 nM | 1000 to 10000 nM | CC(=O)Nc1cc(-c2cncc(-c3cc(NC(=O)c4ccnc(C5(C#N)CC5)c4)ccc3C)n2)ccn1 [Example 146]
16 | 1000 to 10000 nM | 100 to 500 nM | 100 to 500 nM | 1000 to 10000 nM | Cc1ccc(NC(=O)c2ccnc(C(C)(C)C#N)c2)cc1-c1cncc(-c2ccnc(C(=O)NC3CC3)c2)n1 [Example 148]
17 | 100 to 500 nM | ≤ 100 nM | ≤ 100 nM | 1000 to 10000 nM | CC(=O)Nc1cc(-c2nccc(-c3cc(NC(=O)c4cccc(C(C)(C)C#N)c4)ccc3C)n2)ccn1 [Example 150]

Row | IC50 [1] | IC50 [2] | IC50 [3] | IC50 [4] | Structure (SMILES)
18 | 100 to 500 nM | ≤ 100 nM | ≤ 100 nM | 1000 to 10000 nM | CC(=O)Nc1cc(-c2nccc(-c3cc(NC(=O)c4ccnc(C5(C#N)CC5)c4)ccc3C)n2)ccn1 [Example 151]
19 | 500 to 1000 nM | ≤ 100 nM | ≤ 100 nM | 1000 to 10000 nM | CC(=O)Nc1cc(-c2nccc(-c3cc(NC(=O)c4ccnc(C5CC5)c4)ccc3C)n2)ccn1 [Example 152]
20 | 100 to 500 nM | ≤ 100 nM | ≤ 100 nM | 1000 to 10000 nM | CC(=O)Nc1cc(-c2nccc(-c3cc(NC(=O)c4cc(C(F)(F)F)ccn4)ccc3C)n2)ccn1 [Example 153]
21 | 100 to 500 nM | ≤ 100 nM | ≤ 100 nM | 1000 to 10000 nM | Cc1ccc(NC(=O)c2ccnc(C(C)(C)C#N)c2)cc1-c1cncc(-c2ccnc(NC(=O)CC#N)c2)n1 [Example 154]
22 | 1000 to 10000 nM | 100 to 500 nM | ≤ 100 nM | 1000 to 10000 nM | COCCNc1cc(-c2cccc(-c3cc(NC(=O)c4ccnc(C(F)(F)F)c4)ccc3C)c2)ncn1 [Example 156]
23 | 1000 to 10000 nM | ≤ 100 nM | ≤ 100 nM | 1000 to 10000 nM | CC(=O)Nc1cc(-c2nccc(-c3cc(NC(=O)c4ccnc(C(F)(F)F)c4)cnc3C)n2)ccn1 [Example 157]
24 | 1000 to 10000 nM | 100 to 500 nM | 100 to 500 nM | 1000 to 10000 nM | CNC(=O)c1cc(-c2cc(-c3cc(NC(=O)c4ccnc(C(C)(C)C#N)c4)cnc3C)ccn2)ccn1 [Example 158]
25 | 1000 to 10000 nM | ≤ 100 nM | ≤ 100 nM | 1000 to 10000 nM | CNc1cc(-c2cccc(-c3cc(NC(=O)c4ccnc(C(C)(C)C#N)c4)ccc3C)c2)ncn1 [Example 160]
26 | 500 to 1000 nM | ≤ 100 nM | ≤ 100 nM | 1000 to 10000 nM | Cc1ccc(NC(=O)c2ccnc(C(C)(C)C#N)c2)cc1-c1cncc(-c2ccnc(NC=O)c2)n1 [Example 161]
27 | 1000 to 10000 nM | 100 to 500 nM | 100 to 500 nM | 1000 to 10000 nM | Cc1ccc(NC(=O)c2ccnc(C(C)(C)C#N)c2)cc1-c1ccnc(-c2ccnc(C(=O)NC3CC3)c2)c1 [Example 162]
28 | 1000 to 10000 nM | 100 to 500 nM | 100 to 500 nM | 1000 to 10000 nM | CNC(=O)c1cc(-c2nccc(-c3cc(NC(=O)c4ccnc(C(C)(C)C#N)c4)c(F)cc3C)n2)ccn1 [Example 166]
29 | 1000 to 10000 nM | ≤ 100 nM | ≤ 100 nM | 1000 to 10000 nM | CC(=O)Nc1cc(-c2nccc(-c3cc(NC(=O)c4cnnc(C5CC5)c4)ccc3C)n2)ccn1 [Example 168]
30 | 100 to 500 nM | ≤ 100 nM | ≤ 100 nM | 1000 to 10000 nM | Cc1ccc(NC(=O)c2ccnc(C(C)(C)C#N)c2)cc1-c1nccc(-c2ccnc(NC(=O)C3CC3)c2)n1 [Example 169]
31 | 1000 to 10000 nM | ≤ 100 nM | ≤ 100 nM | 1000 to 10000 nM | CNC(=O)c1cc(-c2cccc(-c3cc(NC(=O)c4ccnc(C(C)(C)C#N)c4)ccc3C)c2)ncn1 [Example 171]
32 | 1000 to 10000 nM | ≤ 100 nM | ≤ 100 nM | 1000 to 10000 nM | Cc1ncc(NC(=O)c2ccnc(C(C)(C)C#N)c2)cc1-c1cccc(-c2ccnc(NC(=O)C3CC3)c2)n1 [Example 172]
33 | 1000 to 10000 nM | 100 to 500 nM | ≤ 100 nM | 1000 to 10000 nM | CNc1cc(-c2cncc(-c3cc(NC(=O)c4ccnc(C(C)(C)C#N)c4)ccc3C)n2)ccn1 [Example 173]
34 | 1000 to 10000 nM | ≤ 100 nM | ≤ 100 nM | 1000 to 10000 nM | Cc1ccc(NC(=O)c2cccc(C(C)(C)C#N)c2)cc1-c1cccc(-c2cc(NC(=O)C3CC3)ncn2)c1 [Example 174]
